The test system of series [1] is L. amazoniensis promastigotes. Briefly: Leishmanicidal activity against L. amazoniensis promastigotes (XTT). The note with it: for IC50: Leishmania amazonensis, 72 h, read-out: L. amazoniensis IC50. The method, then:
(§1) All strains were cultured in Schneider’s insect medium, (pH 6.2) supplemented with 10% FBS and incubated at 26 °C. Medium changes were made every 72 h to maintain a viable parasitic population. Leishmanicidal activity was determined according to Williams with some modifications. Samples were dissolved in DMSO (maximum final concentration 1%) at 10 mg/mL. Promastigotes in logarithmic phase of growth, at the concentration 3 × 10^6 parasites/mL, were distributed (100 μL/well) in 96-well flat bottom microtiter plates. Samples with different concentrations (3.1–100 μg/mL) were added (100 μL). […] Assays were performed in triplicates. The microwell plates were incubated for 72 h at 26 °C. After incubation, a solution of XTT (1 mg/mL) in PBS (pH 7.0 at 37 °C) with PMS (0.06 mg/mL) was added (50 μL/well), and incubated for 3 h at 26 °C. The optical density of each well was measured and the IC50 values calculated.
In general terms: Formazan colour is commonly taken as a measure of viable cells.

The nature of series [2]: Cytotoxicity in RAW cells (Resazurin). It is filed as cell-based, murine. The following applies: mouse. The method, then:
Evaluations against RAW cells: The Raw 264.7 murine macrophage cell line was purchased from the American Type Culture Collection (ATCC-TIB71). The cells were maintained in DMEM-HG medium supplemented with 10% fetal bovine serum, 100 U/mL of penicillin and 100 μg/mL of streptomycin, and sodium bicarbonate (2.2 g/L) in humidified atmosphere at 37 °C with 5% CO2. Samples were prepared as described above and added (in 100 μL DMSO) at different concentrations (6.2–200 μg/mL). Medium blank, control drugs and cell growth controls were included to evaluate cell viability. The plates were incubated for 72 h at 37 °C with 5% CO2. After incubation for the indicated time, the cells were washed, after which 10 μL of Resazurin reagent (2.0 mM) was added. They were further incubated at 37 °C for 3 h in a humidified incubator. The IC50 values were assessed using a fluorometric reader (540 nm excitation, 590 nm emission) and the Gen5 software. All assays were performed in triplicate.
A general note: Resazurin is reduced to fluorescent resorufin, in cell work by metabolically active cells.

Series [3] deals with L. brasiliensis promastigotes. Put plainly: Leishmanicidal activity against L. brasiliensis promastigotes (XTT). The note with it: for IC50: 72 h, read-out: L. brasiliensis IC50. The method, then:
as §1, with “Evaluations against Leishmania parasites: Promastigotes of Leishmania-Leishmania: L. amazonensis, Clone 1, NHOM-BR-76-LTB-012 (Lma, donated by the Paul Sabatier Université, France) and Leishmania-Viannia: L. braziliensis M2904 C192 RJA (M2904, donated by Dr. Jorge Arévalo from Universidad Peruana Cayetano Heredia, Peru). All” for “All”

The subject of the next series is T. cruzi epimastigotes. Put plainly: Trypanocidal activity against T. cruzi epimastigotes (XTT). The format is cell-based, Trypanosoma cruzi. The following applies: for IC50: Trypanosoma cruzi, read-out: T. cruzi IC50; for selectivity ratio at 72 h: mouse (RAW 264.7 cells) / Trypanosoma cruzi (epimastigotes), RAW cell IC50 / T. cruzi IC50, read-out: T. cruzi SI (selectivity index, cytotoxicity/anti-protozoal activity). The procedure:
Trypanocidal activity was determined according to Muelas-Serrano with some modifications. […] Benznidazol (3.1–100 μg/mL) was used as the control drug. Assays were performed in triplicates.

[4] abbreviates: epimastigotes, 72 h at 26 °C, XTT, triplicates.
Where [5] appears, read: L. amazoniensis SI (selectivity index, cytotoxicity/anti-protozoal activity), RAW cell IC50 / L. amazoniensis IC50.
Where [6] appears, read: L. brasiliensis SI (selectivity index, cytotoxicity/anti-protozoal activity), RAW cell IC50 / L. brasiliensis IC50.
Setting [7] is: RAW cells, 72 h at 37 °C, Resazurin, triplicate, read-out: Cytotoxicity IC50.

The structures appear in SMILES notation. Like-named read-outs stand apart in the source and are kept apart here.

The text below walks through data of article PMC7412453, “SAR:s for the Antiparasitic Plant Metabolite Pulchrol. 1. The Benzyl Alcohol Functionality” (Molecules, 2020).

Usually IC50 stands for the concentration that inhibits the measured activity by half. Regarding `COc1ccc2c(c1)-c1cc(C)ccc1C(C)(C)O2` [3a, 2-Methoxy-6,6,9-trimethyl-6H-benzo[c]chromene], the selectivity ratio at 72 h in series [1] amounted to 1.2; in series [3], 1.4; in the series on T. cruzi epimastigotes, 2. Besides, the IC50 in series [1] turned out to be 85.3 ± 5.9 µM; in series [3] it was 69.6 ± 5.9 µM; in the series with T. cruzi epimastigotes (setting [4]), 51.1 ± 17.7 µM. In series [2], this compound returned an IC50 at 72 h of 99.5 ± 22 µM.
As to `COc1ccc2c(c1)-c1cc(CCl)ccc1C(C)(C)O2` [3b, 9-(chloromethyl)-2-methoxy-6,6-dimethyl-6H-benzo[c]chromene], the selectivity ratio at 72 h in series [1] (setting [5]) amounted to 1.7; in series [3] (setting [6]) it was 3.5; in the series with T. cruzi epimastigotes, 1.6. The IC50 stood at 35 ± 2.8 µM in series [1], 17.1 ± 0.1 µM in series [3] and 38.1 ± 0.4 µM in the series on T. cruzi epimastigotes (setting [4]). Besides, in series [2], the IC50 at 72 h is 59.2 ± 14.5 µM.
Consider `COCc1ccc2c(c1)-c1cc(OC)ccc1OC2(C)C` [3c, 2-Methoxy-9-(methoxymethyl)-6,6-dimethyl-6H-benzo[c]chromene], for which the values for the selectivity ratio at 72 h (in series [1] (setting [5]); in series [3] (setting [6]); with T. cruzi epimastigotes) were 0.6, 0.7 and 1.3, respectively. In addition, the IC50 worked out at 56.3 ± 12 µM in series [1], 49.2 ± 15.8 µM in series [3] and 24.6 ± 3.5 µM in the series with T. cruzi epimastigotes (setting [4]). This compound showed an IC50 at 72 h in series [2] of 33.1 ± 2.1 µM.
Consider `COc1ccc2c(c1)-c1cc(COC(C)C)ccc1C(C)(C)O2` [3d, 9-(Isopropoxymethyl)-2-methoxy-6,6-dimethyl-6H-benzo[c]chromene], for which the selectivity ratio at 72 h in series [1] was 0.9; in series [3], 0.9; in the series on T. cruzi epimastigotes it was 2.5. Besides, the IC50 in series [1] was determined as 35.2 ± 3.8 µM; in series [3], 35.2 ± 3.2 µM; in the series with T. cruzi epimastigotes (setting [4]), 12.9 ± 0.3 µM. Also, the IC50 at 72 h in series [2] (setting [7]) is 32 ± 0.3 µM.
As for `COc1ccc2c(c1)-c1cc(CNC(C)C)ccc1C(C)(C)O2` [3f, N-((2-Methoxy-6,6-dimethyl-6H-benzo[c]chromen-9-yl)methyl)propan-2-amine], the selectivity ratio at 72 h (in series [1] (setting [5]); in series [3] (setting [6]); with T. cruzi epimastigotes) was 0.4 in each case. Also, the IC50 in series [1] was 67.8 ± 13.8 µM; in series [3], 83.5 ± 32.1 µM; in the series with T. cruzi epimastigotes (setting [4]), 70.6 ± 9.6 µM. The same compound showed an IC50 at 72 h in series [2] of 29.5 ± 9.6 µM.
`COc1ccc2c(c1)-c1cc(CNCC(C)C)ccc1C(C)(C)O2` [3g, N-((2-Methoxy-6,6-dimethyl-6H-benzo[c]chromen-9-yl)methyl)-2-methylpropan-1-amine]: the selectivity ratio at 72 h in series [1] (setting [5]) was 0.8; in series [3] (setting [6]), 0.5; in the series with T. cruzi epimastigotes it was 0.8. The results for the IC50 (in series [1]; in series [3]; in the series with T. cruzi epimastigotes (setting [4])) were 15.4 ± 3.1 µM, 25.8 ± 6.2 µM and 15.4 ± 4 µM, respectively. Besides, the IC50 at 72 h in series [2] was found to be 12.3 ± 1.2 µM.
With `COc1ccc2c(c1)-c1cc(CNCCC(C)C)ccc1C(C)(C)O2` [3h, N-((2-Methoxy-6,6-dimethyl-6H-benzo[c]chromen-9-yl)methyl)-3-methylbutan-1-amine], the values for the selectivity ratio at 72 h (in series [1] (setting [5]); in series [3] (setting [6]); in the series with T. cruzi epimastigotes) were 0.4, 0.5 and 1.3, respectively. The values for the IC50 (in series [1]; in series [3]; with T. cruzi epimastigotes (setting [4])) were 17.7 ± 7.4 µM, 15.9 ± 0.9 µM and 5.9 ± 1.2 µM, respectively. 7.4 ± 2.4 µM corresponded to half-maximal inhibition in series [2] (IC50 at 72 h).
For `COc1ccc2c(c1)-c1cc(COC(C)=O)ccc1C(C)(C)O2` [4a, (2-Methoxy-6,6-dimethyl-6H-benzo[c]chromen-9-yl)methyl acetate], the values for the selectivity ratio at 72 h (in series [1] (setting [5]); in series [3] (setting [6]); in the series with T. cruzi epimastigotes) were 1.2, 1.1 and 2.3, respectively. Besides, the IC50 is 26.9 ± 0.6 µM in series [1], 28.8 ± 0.3 µM in series [3] and 14.4 ± 1.6 µM in the series with T. cruzi epimastigotes (setting [4]). This compound came in with an IC50 at 72 h in series [2] of 32.7 ± 22.4 µM.
Take `COc1ccc2c(c1)-c1cc(COC(=O)C(C)C)ccc1C(C)(C)O2` [4b, (2-Methoxy-6,6-dimethyl-6H-benzo[c]chromen-9-yl)methyl isobutyrate]: the selectivity ratio at 72 h in series [1] (setting [5]) came to 1; in series [3] (setting [6]), 1.5; in the series with T. cruzi epimastigotes, 3. Besides, the IC50 in series [1] is 26.7 ± 2.4 µM; in series [3], 17.6 ± 0.9 µM; with T. cruzi epimastigotes (setting [4]) it was 8.8 ± 0.9 µM. The compound also yielded an IC50 at 72 h in series [2] of 26.4 ± 5.9 µM.
`COc1ccc2c(c1)-c1cc(COC(=O)C(C)(C)C)ccc1C(C)(C)O2` [4c, (2-Methoxy-6,6-dimethyl-6H-benzo[c]chromen-9-yl)methyl pivalate]: the values for the selectivity ratio at 72 h (in series [1]; in series [3]; in the series with T. cruzi epimastigotes) were 1, 1.1 and 3, respectively. For the same compound, the IC50 in series [1] is 20.5 ± 0.6 µM; in series [3], 17.4 ± 1.7 µM; with T. cruzi epimastigotes (setting [4]), 6.4 ± 0.1 µM. The IC50 at 72 h in series [2] (setting [7]) came out at 19.8 ± 0.9 µM.
Take `CCCC(=O)OCc1ccc2c(c1)-c1cc(OC)ccc1OC2(C)C` [4d, (2-Methoxy-6,6-dimethyl-6H-benzo[c]chromen-9-yl)methyl butyrate]: the figures for the selectivity ratio at 72 h (in series [1] (setting [5]); in series [3] (setting [6]); in the series with T. cruzi epimastigotes) were 1.3, 1.8 and 6.4, respectively. Further, the half-maximal inhibitory concentration (IC50) turned out to be 79.3 ± 9.4 µM in series [1], 57.8 ± 2.4 µM in series [3] and 16.2 ± 3.2 µM in the series on T. cruzi epimastigotes (setting [4]). Also, the IC50 at 72 h in series [2] was 103 ± 35.3 µM.
With `COc1ccc2c(c1)-c1cc(COC(=O)CC(C)C)ccc1C(C)(C)O2` [4e, (2-Methoxy-6,6-dimethyl-6H-benzo[c]chromen-9-yl)methyl 3-methylbutanoate], the selectivity ratio at 72 h was 1.9 in series [1] (setting [5]), 2.2 in series [3] (setting [6]) and 6.7 in the series with T. cruzi epimastigotes. Moreover, the results for the IC50 (in series [1]; in series [3]; in the series with T. cruzi epimastigotes (setting [4])) were 14.5 ± 0.1 µM, 13.1 ± 0.4 µM and 4.2 ± 1.1 µM, respectively. The compound further came in with an IC50 at 72 h in series [2] of 28.2 ± 9 µM.
For `COc1ccc2c(c1)-c1cc(COC(=O)CC(C)(C)C)ccc1C(C)(C)O2` [4f, (2-Methoxy-6,6-dimethyl-6H-benzo[c]chromen-9-yl)methyl 3,3-dimethylbutanoate], the selectivity ratio at 72 h was 1 in series [1] (setting [5]), 1 in series [3] (setting [6]) and 3.3 in the series with T. cruzi epimastigotes. Also, the IC50 in series [1] was determined as 19.5 ± 0.8 µM; in series [3], 20 ± 4.2 µM; in the series on T. cruzi epimastigotes (setting [4]), 5.7 ± 0.3 µM. Besides, the IC50 at 72 h in series [2] is 19 ± 3 µM.
Regarding `CCCCCC(=O)OCc1ccc2c(c1)-c1cc(OC)ccc1OC2(C)C` [4g, (2-Methoxy-6,6-dimethyl-6H-benzo[c]chromen-9-yl)methyl hexanoate], the selectivity ratio at 72 h in series [1] is 1.2; in series [3], 1.9; with T. cruzi epimastigotes, 2.3. Further, the IC50 in series [1] stood at 42.3 ± 8.7 µM; in series [3], 27.7 ± 0.3 µM; with T. cruzi epimastigotes (setting [4]), 22.8 ± 5.7 µM. In addition, in series [2] (setting [7]), the IC50 at 72 h was 52.1 ± 8.1 µM.
For the compound `O=C(Cn1ccnc1[N+](=O)[O-])NCc1ccccc1` [Benznidazole, reference compound], the IC50 at 72 h in series [2] (setting [7]) is 74.7 ± 9.1 µM. The IC50 in the series with T. cruzi epimastigotes (72 h) is 19.2 ± 7.7 µM. Besides, the selectivity ratio at 72 h with T. cruzi epimastigotes was 3.9.
For the compound `CCCCCCCCCCCCCCCCOP(=O)([O-])OCC[N+](C)(C)C` [Miltefosine, reference compound], the IC50 at 72 h in series [2] (RAW 264.7 macrophage cells (ATCC-TIB71), RAW cells, 72 h at 37 °C, Resazurin, triplicate, read-out: Cytotoxicity IC50) turned out to be 76.6 ± 3.2 µM. Further, in series [3], the IC50 was found to be 13 ± 1.2 µM.
